Results from US20110256236A1 (priority 2010, published 2011).
Like-named read-outs stand apart in the source and are kept apart here.

Columns and labels:
[1] = system: HL-60; settings: HL-60 cell line; Du et al. 2005; read-out: IC50 (inhibitory concentration of 50%), tumor growth; cited from earlier work
[2] = system: KG-1a cells; settings: 48 hours
Protocol: The KG-1a cells, which are an early phenotype of human acute myeloid leukemia (American Type Culture Collection, Manassas, Va.), were grown in complete growth medium [Iscove's Modified Dulbeco's Medium (American Type Culture Collection, Manassas, Va.)] supplemented with 20% fetal bovine serum (Sigma-Aldrich, UK) and 1% Penicillin-Streptomycin (GIBCO Invitrogen Corporation, Carlsbad, Calif.) at 37° C. in a humidified 5% CO2 incubator.
The KG-1a cells were cultured for 48 hours in 12-well tissue culture plates, each containing complete growth medium at a concentration of 2×10^6 cells 1 ml, and each well contained a total volume of two milliliters. Thalidomide (TOCRIS Bioscience, Ellisville, Mo.) was added at a concentration of 5 mg/L whether used alone or in combination with other chemotherapeutic agents. Interleukin-2 (Proleukin®, Aldesleuken for injection) (CHIRON Therapeutics, Emeryville, Calif.) was added at a concentration of 200 IU/ml whether used alone or in combination with thalidomide or arsenic trioxide. Arsenic trioxide (Sigma-Aldrich, Inc., St. Louis, Mo.) was added at concentrations of 2 μM and 4 μM with and without 100 μM of ascorbic acid in the first flow cytometry study, and at 4 μM in the rest of the studies either alone or combined with thalidomide and interleukin-2. A control culture containing neither thalidomide nor interleukin-2 nor arsenic trioxide was set up in conditions otherwise identical. All the control and treated cultures were set in duplicate and incubated for 48 hours at 37° C. in a humidified 5% CO2 incubator.
The detection of apoptosis and necrosis by Annex in V-FITC assay using flow cytometric analysis was carried out as described in the Annexin V-FITC Apoptosis Detection Kit (BioVision, Inc., Mountain View, Calif.) manual. Staurosporine (Sigma-Aldrich, Inc., St. Louis, Mo.) was used as a positive control at a concentration of 10 μM and was incubated only for 24 hours with the cells. Briefly, after the KG-1a cells were incubated for 48 hours, they were harvested by centrifugation at 1,300 RPM for five minutes. Cells were resuspended in 500 μl of 1× binding buffer. Then 5 μl of Annexin V-FITC and 5 μl of propidium iodide (PI) were added to all tubes (except the negative control which contained no staining and no treatment; for the Annexin V-FITC controls only the Annexin V-FITC was added; and for the Propidium Iodide control only PI was added). All tubes were incubated at room temperature for five minutes in the dark.
Results were subjected to one way ANOVA. Statistical significant differences between means was set at p<0.05.

[3] = system: MCF-7; settings: MCF-7 cell line; Du et al. 2005; read-out: IC50 (inhibitory concentration of 50%), tumor growth; cited from earlier work
[4] = target: T1, PML/RAR-α fusion protein (Homo sapiens, UniProt P10276+P29590); parameters: unit not given here; settings: NB4 cells; cited from earlier work
T1 construct: host or cells: NB4 cells (endogenous t(15;17) fusion)
T1 sequence (P29590+P10276 with tags, fused parts or gaps): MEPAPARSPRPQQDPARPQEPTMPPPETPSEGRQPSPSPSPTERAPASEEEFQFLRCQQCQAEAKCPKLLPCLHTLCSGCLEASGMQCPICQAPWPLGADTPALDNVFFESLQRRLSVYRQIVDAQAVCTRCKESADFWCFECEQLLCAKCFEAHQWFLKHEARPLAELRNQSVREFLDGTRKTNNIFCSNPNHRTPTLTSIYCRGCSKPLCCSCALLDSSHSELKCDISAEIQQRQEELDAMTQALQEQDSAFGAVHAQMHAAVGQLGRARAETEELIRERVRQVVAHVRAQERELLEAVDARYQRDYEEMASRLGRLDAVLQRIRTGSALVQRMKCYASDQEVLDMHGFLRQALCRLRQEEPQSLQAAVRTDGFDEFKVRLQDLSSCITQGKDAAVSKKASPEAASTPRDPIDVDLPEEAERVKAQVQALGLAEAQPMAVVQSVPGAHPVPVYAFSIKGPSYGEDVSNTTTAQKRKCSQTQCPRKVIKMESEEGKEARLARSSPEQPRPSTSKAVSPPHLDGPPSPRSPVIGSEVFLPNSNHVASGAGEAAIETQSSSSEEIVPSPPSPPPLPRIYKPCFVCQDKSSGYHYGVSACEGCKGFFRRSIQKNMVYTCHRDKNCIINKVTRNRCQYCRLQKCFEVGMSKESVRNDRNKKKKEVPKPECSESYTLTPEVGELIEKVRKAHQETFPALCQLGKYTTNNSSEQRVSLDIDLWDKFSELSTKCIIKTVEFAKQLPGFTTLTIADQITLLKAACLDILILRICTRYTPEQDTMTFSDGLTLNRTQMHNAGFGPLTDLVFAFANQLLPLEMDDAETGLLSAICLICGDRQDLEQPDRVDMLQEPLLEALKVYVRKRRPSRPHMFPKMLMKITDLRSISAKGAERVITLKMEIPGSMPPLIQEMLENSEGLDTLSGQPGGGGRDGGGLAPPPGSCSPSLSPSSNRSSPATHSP

[5] = system: APL cell line NB4; parameters: unit not given here; settings: APL studies, cited from earlier work
[6] = thalidomide 5 mg/L, As2O3 4 μM, IL-2 200 IU/ml, alone or combined
[7] = As2O3 2 μM, with or without ascorbic acid 100 μM
[8] = As2O3 4 μM, with or without ascorbic acid 100 μM

Compound	IC50 [1] [µM]	% Early apoptosis [2, 6] [%]	% Late apoptosis [2, 6] [%]	% Necrosis [2, 6] [%]	% Late apoptosis ([2]; thalidomide 5 mg/L, As2O3 4 μM, IL-2 200 IU/ml, alone or combined, listed as thalidomide) [%]	IC50 [3] [µM]	concentrations inducing degradation of PML/RAR-α (and wild type PML) [4]	concentrations inducing partial differentiation ([5]; low concentrations)	concentrations inducing apoptosis ([5]; relatively high concentrations)	% Early apoptosis [2, 7] [%]	% Late apoptosis [2, 7] [%]	% Live Cells [2, 7] [%]	% Necrotic Cells [2, 7] [%]	% Early apoptosis [2, 8] [%]	% Late apoptosis [2, 8] [%]	% Live Cells [2, 8] [%]	% Necrotic Cells [2, 8] [%]	cytotoxic effect (in words) [2, 6]	% Late apoptosis ([2]; thalidomide 5 mg/L, As2O3 4 μM, IL-2 200 IU/ml, alone or combined, listed as Arsenic trioxide) [%]
O=C1CCC(N2C(=O)c3ccccc3C2=O)C(=O)N1 (stereo not drawn) [Thalidomide, α-(N-phthalimido) glutarimide]	22.1 ± 2.15	7.92	49.385	1.155	49.39	18.4 ± 2.34	–	–	–	–	–	–	–	–	–	–	–	–	–
arsenic trioxide [As2O3]	–	10.095	16.965	0.59	–	–	0.5-2.0	0.1-0.5	0.5-2.0	14.50	6.88	75.94	2.68	20.87	8.31	69.56	1.26	modest cytotoxic effect	16.97
